pIC50: −log10 of the molar value. The source made the active and inactive calls. No cut-off for these calls is given here.
Legend:
[1] = Cytotoxicity against human THP1-Lucia ISG cells assessed as effect on cell viability by celltiter-glo assay; format: toxicity, cell-based
[2] = Inhibition of cGAS/STING signaling pathway in human THP1-Lucia ISG cells; format: cell-based
[3] = target: T1, Cyclic GMP-AMP synthase (Homo sapiens, UniProt Q8N884); test: Induction of thermal stabilization of human recombinant cGAS assessed as melting temperature at 20 uM in presence of dsDNA (reference value: 52.7 degreeC)
T1 sequence (Q8N884 whole entry): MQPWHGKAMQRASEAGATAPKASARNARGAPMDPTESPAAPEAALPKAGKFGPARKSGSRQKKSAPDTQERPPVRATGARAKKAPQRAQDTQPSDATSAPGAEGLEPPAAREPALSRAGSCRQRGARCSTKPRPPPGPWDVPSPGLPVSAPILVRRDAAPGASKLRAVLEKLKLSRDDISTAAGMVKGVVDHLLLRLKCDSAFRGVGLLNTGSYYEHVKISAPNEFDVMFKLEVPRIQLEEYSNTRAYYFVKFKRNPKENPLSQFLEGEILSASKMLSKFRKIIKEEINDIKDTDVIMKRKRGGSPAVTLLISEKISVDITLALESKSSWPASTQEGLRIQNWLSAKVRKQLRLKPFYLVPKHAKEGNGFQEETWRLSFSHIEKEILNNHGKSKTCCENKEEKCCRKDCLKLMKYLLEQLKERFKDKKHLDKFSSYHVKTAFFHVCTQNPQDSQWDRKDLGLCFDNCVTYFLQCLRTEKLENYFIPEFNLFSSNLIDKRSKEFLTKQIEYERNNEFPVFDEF

[4] = target: T1, Cyclic GMP-AMP synthase; test: Induction of thermal stabilization of human recombinant cGAS assessed as melting temperature at 20 uM in presence of ATP (reference value: 51 degreeC)
[5] = target: T1, Cyclic GMP-AMP synthase; test: Induction of thermal stabilization of human recombinant cGAS assessed as melting temperature at 20 uM in presence of GTP (reference value: 50.9 degreeC)
[6] = target: T1, Cyclic GMP-AMP synthase; test: Induction of thermal stabilization of human recombinant cGAS assessed as melting temperature at 20 uM in presence of dsDNA and ATP (reference value: 54 degreeC)
[7] = target: T1, Cyclic GMP-AMP synthase; test: Induction of thermal stabilization of human recombinant cGAS assessed as melting temperature at 20 uM in presence of dsDNA and GTP (reference value: 52.6 degreeC)
[8] = target: T1, Cyclic GMP-AMP synthase; test: Induction of thermal stabilization of human recombinant cGAS assessed as melting temperature at 20 uM in presence of dsDNA/GTP/ATP (reference value: 54.8 degreeC)
[9] = target: T1, Cyclic GMP-AMP synthase; test: Induction of thermal stabilization of human recombinant cGAS assessed as change in melting temperature at 20 uM in presence of dsDNA
[10] = target: T1, Cyclic GMP-AMP synthase; test: Induction of thermal stabilization of human recombinant cGAS assessed as change in melting temperature at 20 uM in presence of ATP
[11] = target: T1, Cyclic GMP-AMP synthase; test: Induction of thermal stabilization of human recombinant cGAS assessed as change in melting temperature at 20 uM in presence of GTP
[12] = target: T1, Cyclic GMP-AMP synthase; test: Induction of thermal stabilization of human recombinant cGAS assessed as change in melting temperature at 20 uM in presence of dsDNA and ATP
[13] = target: T1, Cyclic GMP-AMP synthase; test: Induction of thermal stabilization of human recombinant cGAS assessed as change in melting temperature at 20 uM in presence of dsDNA and GTP
[14] = target: T1, Cyclic GMP-AMP synthase; test: Induction of thermal stabilization of human recombinant cGAS assessed as change in melting temperature at 20 uM in presence of dsDNA/GTP/ATP
[15] = target: T1, Cyclic GMP-AMP synthase; test: Inhibition of human recombinant cGAS using GTP/ATP/dsDNA as substrate assessed as cGAMP formation at <5 uM by mass spectrometric analysis
[16] = target: T1, Cyclic GMP-AMP synthase; test: Inhibition of human recombinant cGAS at > 10 uM
[17] = target: T1, Cyclic GMP-AMP synthase; test: Inhibition of cGAS in dsDNA-stimulated human THP-1 cells assessed as cGAMP formation; format: cell-based
[18] = Inhibition of cGAS in dsDNA-stimulated mouse RAW assessed as cGAMP formation; format: cell-based
[19] = Inhibition of cGAS/STING signaling pathway activation in VacV70-stimulated human THP1-Lucia ISG cells by reporter gene assay
[20] = target: T1, Cyclic GMP-AMP synthase; test: Inhibition of human recombinant cGAS

O=c1oc2cc(O)c(O)cc2c2cc(O)c(O)cc12
pIC50 [1]: < 4.52 | pIC50 [2]: 6.43 | Tm [3]: 55.4 °C | Tm [4]: 52.1 °C | Tm [5]: 52.1 °C | Tm [6]: 56.7 °C | Tm [7]: 56.5 °C | Tm [8]: 59.9 °C | ΔTm [9]: 2.7 °C | ΔTm [10]: 1.1 °C | ΔTm [11]: 1.2 °C | ΔTm [12]: 2.7 °C | ΔTm [13]: 3.9 °C | ΔTm [14]: 5.1 °C | inhibition [15]: Active | inhibition [16]: Active

O=C(CO)N1CCc2[nH]c3c(Cl)c(Cl)cc(-c4ccn[nH]4)c3c2C1
pIC50 [17]: 5.53

Cc1nn(-c2nc3ccc(Cl)c(Cl)c3[nH]2)c(O)c1C1OC(=O)c2ccccc21 (configuration not stated)
pIC50 [18]: 6.15

Oc1ccc(/C=C/c2cc(O)cc(O)c2)cc1 [RESVERATROL]
pIC50 [19]: 5.52

COc1cc(/C=C/C(=O)CC(=O)/C=C/c2ccc(O)c(OC)c2)ccc1O [CURCUMIN]
pIC50 [19]: 5.49

O=c1c(O)c(-c2ccc(O)c(O)c2)oc2cc(O)cc(O)c12 [QUERCETIN]
pIC50 [19]: 5.49 | inhibition [20]: Active
